Data: patent publication US20080176854A1, “Nitro-Substituted Phenyl-Piperazine Compounds, Their Preparation and Use in Medicaments” (Laboratorios Del Dr. Esteve S.A, priority 2004, published 2008)

Target: T1, 5HT6-human recombinant receptor (Homo sapiens, UniProt P50406)
T1 construct: purchased Receptor Biology; host or cells: HEK-293 cell membranes
Experiment: Binding to serotonin receptor 5-HT6 ([3H]-LSD radioligand displacement)
Settings: membranes of HEK-293 cells expressing the receptor; radioligand [3H]-LSD 2.7 nM; 60 minutes at 37° C; triplicate
Description: I) Binding to Serotonin Receptor 5-HT6
Cell membranes of HEK-293 cells expressing the 5HT6-human recombinant receptor were supplied by Receptor Biology. In said membranes the receptor concentration is 2.18 pmol/mg protein and the protein concentration is 9.17 mg/ml. The experimental protocol follows the method of B. L. Roth et al. [B. L. Roth, S. C. Craigo, M. S. Choudhary, A. Uluer, F. J. Monsma, Y. Shen, H. Y. Meltzer, D. R. Sibley: Binding of Typical and Atypical Antipsychotic Agents to 5-Hydroxytryptamine-6 and Hydroxytryptamine-7 Receptors. The Journal of Pharmacology and Experimental Therapeutics, 1994, 268, 1403] with the following slight changes. The respective part of the literature description is hereby incorporated by reference and forms part of the disclosure.
The commercial membrane is diluted (1:40 dilution) with the binding buffer: 50 mM Tris-HCl, 10 mM MgCl2, 0.5 mM EDTA (pH 7.4). The radioligand used is [^3H]-LSD at a concentration of 2.7 nM with a final volume of 200 μl. Incubation is initiated by adding 100 μl of membrane suspension, (≈22.9 μg membrane protein), and is prolonged for 60 minutes at a temperature of 37° C. The incubation is ended by fast filtration in a Brandel Cell Harvester through fiber glass filters made by Schleicher & Schuell G F 3362 pretreated with a solution of polyethylenimine at 0.5%. The filters are washed three times with three milliliters of buffer Tris-HCl 50 mM pH 7.4. The filters are transferred to flasks and 5 ml of Ecoscint H liquid scintillation cocktail are added to each flask. The flasks are allowed to reach equilibrium for several hours before counting with a Wallac Winspectral 1414 scintillation counter. Non-specific binding is determined in the presence of 100 μM of serotonin. Tests were made in triplicate. The inhibition constants (Ki, nM) were calculated by non-linear regression analysis using the program EBDA/LIGAND described in Munson and Rodbard, Analytical Biochemistry, 1980, 107, 220, the respective part of which is hereby incorporated by reference and forms part of the disclosure.
The binding of the nitro-substituted phenyl-piperazine compounds to the 5-HT6 receptor was determined as described above.

T1 sequence (P50406 whole entry): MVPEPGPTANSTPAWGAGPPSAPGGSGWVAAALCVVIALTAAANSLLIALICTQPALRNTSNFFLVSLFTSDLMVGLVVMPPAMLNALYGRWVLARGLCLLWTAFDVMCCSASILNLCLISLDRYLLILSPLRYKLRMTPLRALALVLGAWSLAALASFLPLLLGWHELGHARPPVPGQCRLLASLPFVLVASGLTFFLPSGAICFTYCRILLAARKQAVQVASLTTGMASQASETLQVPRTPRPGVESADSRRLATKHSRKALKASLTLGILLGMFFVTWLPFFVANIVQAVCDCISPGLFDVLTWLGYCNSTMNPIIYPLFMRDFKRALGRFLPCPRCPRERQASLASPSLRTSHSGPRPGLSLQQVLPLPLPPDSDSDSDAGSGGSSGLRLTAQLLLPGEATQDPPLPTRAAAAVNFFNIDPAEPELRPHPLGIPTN

SMILES	Ki
O=[N+]([O-])c1ccc(N2CCNCC2)cc1NCCOc1ccc(Cl)cc1 [Example 58, [2-(4-Chloro-phenoxy)-ethyl]-(2-nitro-5-piperazin-1-yl-phenyl)-amine]	290 nM
CC1CN(c2ccc([N+](=O)[O-])c(NCCOc3ccc(Cl)cc3)c2)CC(C)N1 (stereo not drawn) [Example 17, [2-(4-Chloro-phenoxy)-ethyl]-[5-(3,5-dimethyl-piperazin-1-yl)-2-nitro-phenyl]-amine]	5000 nM
O=[N+]([O-])c1ccc(N2CCNCC2)cc1NCc1cccnc1 [Example 26, (2-Nitro-5-piperazin-1-yl-phenyl)-pyridin-3-ylmethyl-amine]	1510 nM
Cc1cc(C)n(-c2cc(N3CCNCC3)ccc2[N+](=O)[O-])n1 [Example 32, 1-[3-(3,5-Dimethyl-pyrazol-1-yl)-4-nitro-phenyl]-piperazine]	482 nM
Cc1ccccc1OCCNc1cc(N2CCNCC2)ccc1[N+](=O)[O-] [Example 13, (2-Nitro-5-piperazin-1-yl-phenyl)-(2-o-tolyloxy-ethyl)-amine]	162 nM
Cc1cc(C)n(-c2cc(N3CCN(C)CC3)ccc2[N+](=O)[O-])n1 [Example 21, 1-[3-(3,5-Dimethyl-pyrazol-1-yl)-4-nitro-phenyl]-4-methyl-piperazine]	250 nM
O=[N+]([O-])c1ccc(N2CCNCC2)cc1NCCOc1ccccc1 [Example 30, (2-Nitro-5-piperazin-1-yl-phenyl)-(2-phenoxy-ethyl)-amine]	114 nM
CN1CCN(c2ccc([N+](=O)[O-])c(Nn3cccc3)c2)CC1 [Example 5, [5-(4-Methyl-piperazin-1-yl)-2-nitro-phenyl]-pyrrol-1-yl-amine]	481 nM
O=[N+]([O-])c1ccc(N2CCNCC2)cc1NCc1ccc(Cl)cc1 [Example 52, (4-Chloro-benzyl)-(2-nitro-5-piperazin-1-yl-phenyl)-amine]	8.3 nM
O=[N+]([O-])c1ccc(N2CCNCC2)cc1N1CCN(Cc2ccccc2)CC1 [Example 27, 1-Benzyl-4-(2-nitro-5-piperazin-1-yl-phenyl)-piperazine]	3780 nM
O=[N+]([O-])c1ccc(N2CCNCC2)cc1NCCc1ccccc1 [Example 33, (2-Nitro-5-piperazin-1-yl-phenyl)-phenethyl-amine]	33.1 nM
CN1CCN(c2ccc([N+](=O)[O-])c(Oc3ccccc3)c2)CC1 [Example 7, 1-Methyl-4-(4-nitro-3-phenoxy-phenyl)-piperazine]	26.6 nM
O=[N+]([O-])c1ccc(N2CCNCC2)cc1NCc1ccco1 [Example 57, Furan-2-ylmethyl-(2-nitro-5-piperazin-1-yl-phenyl)-amine]	25 nM
CN1CCN(c2ccc([N+](=O)[O-])c(NCc3ccco3)c2)CC1 [Example 11, Furan-2-ylmethyl-[5-(4-methyl-piperazin-1-yl)-2-nitro-phenyl]-amine]	61.2 nM
CN1CCN(c2ccc([N+](=O)[O-])c(N3CCOCC3)c2)CC1 [Example 15, 4-[5-(4-Methyl-piperazin-1-yl)-2-nitro-phenyl]-morpholine]	2710 nM

The remaining lines, values ahead:

Ki	SMILES
80.3 nM	CN1CCN(c2ccc([N+](=O)[O-])c(NCCOc3ccc(C(C)(C)C)cc3)c2)CC1 [Example 45, [2-(4-tert-Butyl-phenoxy)-ethyl]-[5-(4-methyl-piperazin-1-yl)-2-nitro-phenyl]-amine]
118 nM	CN1CCN(c2ccc([N+](=O)[O-])c(NCCc3ccccc3)c2)CC1 [Example 23, [5-(4-Methyl-piperazin-1-yl)-2-nitro-phenyl]-phenethyl-amine]
172 nM	CN1CCN(c2ccc([N+](=O)[O-])c(NCc3ccc(F)cc3)c2)CC1 [Example 2, (4-Fluoro-benzyl)-[5-(4-methyl-piperazin-1-yl)-2-nitro-phenyl]-amine]
4490 nM	CN1CCN(c2ccc([N+](=O)[O-])c(NC(c3ccccc3)c3ccccc3)c2)CC1 [Example 29, Benzhydryl-[5-(4-methyl-piperazin-1-yl)-2-nitro-phenyl]-amine]
1710 nM	CN1CCN(c2ccc([N+](=O)[O-])c(-n3nc(-c4ccccc4)c4ccccc4c3=O)c2)CC1 [Example 31, 2-[5-(4-Methyl-piperazin-1-yl)-2-nitro-phenyl]-4-phenyl-2H-phthalazin-1-one]
732 nM	CN1CCN(c2ccc([N+](=O)[O-])c(-n3nc(-c4ccccc4)c4ccccc4c3=O)c2)CC1 [Example 16, 2-[5-(4-Methyl-piperazin-1-yl)-2-nitro-phenyl]-4-phenyl-2H-phthalazin-1-one]
27.5 nM	O=[N+]([O-])c1ccc(N2CCNCC2)cc1NCc1ccccc1 [Example 22, Benzyl-(2-nitro-5-piperazin-1-yl-phenyl)-amine]
1270 nM	CN1CCN(c2ccc([N+](=O)[O-])c(NCc3cccnc3)c2)CC1 [Example 24, [5-(4-Methyl-piperazin-1-yl)-2-nitro-phenyl]-pyridin-3-ylmethyl-amine]
19.1 nM	COc1ccccc1OCCNc1cc(N2CCN(C)CC2)ccc1[N+](=O)[O-] [Example 51, [2-(2-Methoxy-phenoxy)-ethyl]-[5-(4-methyl-piperazin-1-yl)-2-nitro-phenyl]-amine]
6330 nM	O=[N+]([O-])c1ccc(N2CCN(CCO)CC2)cc1NCCc1ccccc1 [Example 12, 2-[4-(4-Nitro-3-phenethylamino-phenyl)-piperazin-1-yl]-ethanol]
26.1 nM	Cc1ccccc1OCCNc1cc(N2CCN(C)CC2)ccc1[N+](=O)[O-] [Example 55, [5-(4-Methyl-piperazin-1-yl)-2-nitro-phenyl]-(2-o-tolyloxy-ethyl)-amine]
59 nM	CN1CCN(c2ccc([N+](=O)[O-])c(NCc3ccc(Cl)cc3)c2)CC1 [Example 56, (4-Chloro-benzyl)-[5-(4-methyl-piperazin-1-yl)-2-nitro-phenyl]-amine]
11.9 nM	CC(Nc1cc(N2CCN(C)CC2)ccc1[N+](=O)[O-])c1ccccc1 (stereo not drawn) [Example 59, [5-(4-Methyl-piperazin-1-yl)-2-nitro-phenyl]-(1-phenyl-ethyl)-amine]
245 nM	COc1ccc(OCCNc2cc(N3CCN(C)CC3)ccc2[N+](=O)[O-])cc1 [Example 46, [2-(4-Methoxy-phenoxy)-ethyl]-[5-(4-methyl-piperazin-1-yl)-2-nitro-phenyl]-amine]
34.3 nM	O=[N+]([O-])c1ccc(N2CCN(Cc3ccccc3)CC2)cc1NCc1ccccc1 [Example 53, Benzyl-[5-(4-benzyl-piperazin-1-yl)-2-nitro-phenyl]-amine]
